This test concerns Brassica rapa subsp. oleifera. In words: Herbicidal activity against Brassica rapa subsp. oleifera seedling assessed as root growth inhibition at 1 x10 ' -4 M measured after 7 days. Type of test: functional. The note with it: 168 h, read-out: GI.
Take `O=C(CCl)NC(Cc1ccco1)C(=O)O` (racemic): the inhibition of growth at 100 µM turned out to be 51%. Regarding `O=C(O)CC(NC(=O)CF)c1ccco1` (racemic), the inhibition of growth at 100 µM was determined as 43%. The value for `O=C(CF)NC(Cc1ccco1)C(=O)O` (racemic) was 90%. Consider `NC(Cc1ccco1)C(=O)O` (racemic), for which the inhibition of growth at 100 µM worked out at 7%. Consider `O=C(O)COc1ccc(Cl)cc1Cl` [2,4-DICHLOROPHENOXYACETIC ACID], for which the inhibition of growth at 100 µM worked out at 100%.

As for `O=C(O)CC(NC(=O)CCl)c1ccco1` (racemic), the inhibition of growth at 100 µM came to 55%. Consider `CC(=O)NC(Cc1ccco1)C(=O)O` (racemic), for which the inhibition of growth at 100 µM is 19%. With `CC(=O)NC(CC(=O)O)c1ccco1` (racemic), the inhibition of growth at 100 µM was determined as 22%.

With `NC(CC(=O)O)c1ccco1` (racemic), the inhibition of growth at 100 µM is 16%.

Values taken from ChEMBL document CHEMBL3046120, “Synthesis and root growth-inhibitory activity of 2- and 3-(haloacetylamino)-3-(2-furyl)propanoic acids” (2003).
